Where “and” joins values, the source holds several entries; their conditions need not be identical. Equal entries are not always repeated.
Tested on: normal human dermal fibroblasts (NHDF)
Assay: Collagen synthesis boosting activity, Sirius Red staining of collagen in fibroblast monolayer (96 well)
Format: cell-based
Conditions: 48 h incubation
Experimental: Method for determining the collagen synthesis boosting activity of selected substances of natural or synthetic origin.
Fibroblasts are responsible for collagen synthesis in the dermis layer of the skin. The test system involves culturing normal human dermal fibroblasts (NHDF) in a “monolayer” culture in 96 well MTPs, incubating them over a defined period with test substances and then determining the increase in collagen qualitatively by a staining method.
The principle of the assay is based on histological, specific staining of the soluble collagen (predominantly type I and III collagen) with the assistance of the dye Sirius Red (Direct Red 80). Sirius Red is an anionic dye having sulfonic acid groups attached to its side chains. These sulfonic acid groups react with the side chain groups of the amino acids (proline, hydroxyproline, lysine and hydroxylysine) predominantly occurring in collagen, it being necessary for an intact collagen structure to be present.
The model used for the assay design is the procedure described in B. J. Walsh et al., Analytical Biochemistry 203, 187-190 (1992) for the quantitative determination of collagen on the 96 well scale. […]
After a 24 h adaptation phase for the NHDF, the cells are incubated (37° C., 5% CO2) for 48 h with the incubation solution and corresponding control solutions (solvent and blank). […] The absorption of the resultant dye solution can be determined photometrically at 540 nm.
Thanks to the linear relationship between collagen content and the OD values arising from staining, the increase in OD is determined for qualitative assessment of the collagen synthesis boosting effect. To this end, the mean and standard deviations of the controls and the test samples are calculated and then a background or blank correction is made. […]
The synergy index (SI) values of the ternary mixtures according to the invention were calculated according to Kull (literature: F. C. Kull et al, Applied Microbiology vol. 9, p. 538-541 (1961); D. C. Steinberg, Cosmetics & Toiletries vol. 115(11), 59-62 (2000) by means of the following equation. […]

[1] = usage concentration 1.020 mg/ml

## O=C1O[C@H]([C@@H](O)CO)C([O-])=C1OP(=O)([O-])[O-].O=C1O[C@H]([C@@H](O)CO)C([O-])=C1OP(=O)([O-])[O-].[Mg+2].[Mg+2].[Mg+2] [Magnesium ascorbyl phosphate (Bio172), Magnesium ascorbyl phosphate]
Usage concentration 0.362 mg/ml
  Collagen synthesis boost [%], relative to untreated control: 66.97% and 67.44%

## O=C1O[C@H]([C@@H](O)CO)C([O-])=C1OP(=O)([O-])[O-].O=C1O[C@H]([C@@H](O)CO)C([O-])=C1OP(=O)([O-])[O-].[Mg+2].[Mg+2].[Mg+2] [Magnesium ascorbyl phosphate (Bio1300/1), Magnesium ascorbyl phosphate]
[1]
  Collagen synthesis boost [%], relative to untreated control: 141.13%

## O=C1O[C@H]([C@@H](O)CO)C([O-])=C1OP(=O)([O-])[O-].[Na+].[Na+].[Na+] [Sodium ascorbyl phosphate (Bio1586), Sodium ascorbyl phosphate]
[1]
  Collagen synthesis boost [%], relative to untreated control: 144.57%

Reference: US20090232915A1, “MIXTURES WITH A COLLAGEN SYNTHESIS BOOSTING ACTION” (SYMRISE GmbH & Co., KG, priority 2008, published 2009)
